Structures are written as SMILES. ± gives the expanded uncertainty stated by the source.

This passage reports surface tension liquid-gas results from the NIST ThermoML archive (doi:10.1016/j.jct.2013.10.010).

A short description of data set [1]: φn = volume fraction of the nth substance listed. Particulars: 298.15 K, Wilhelmy Plate Method.
For data set [2] the following is noted: 298.15 K, Wilhelmy Plate Method.

In the case of `OCCO` [1,2-ethanediol] + O, the values for the surface tension liquid-gas in data set [1] (φ1 = 0.1), in data set [1] (φ1 = 0.2) and in data set [1] (φ1 = 0.3) were 68.3 ± 0.4 mN/m, 64.8 ± 0.4 mN/m and 61.5 ± 0.4 mN/m, respectively.

On to `C1COCCO1` [1,4-dioxane] + O, for which the surface tension liquid-gas – broadly, the force per length acting along the surface – is 54 ± 0.4 mN/m in data set [1] (φ1 = 0.1), 52 ± 0.4 mN/m in data set [1] (φ1 = 0.2) and 46.6 ± 0.4 mN/m in data set [1] (φ1 = 0.3).

Take `O` [water]: the surface tension liquid-gas in data set [2] amounted to 71.8 ± 0.4 mN/m. On to `O` [water] + C1COCCO1, for which the surface tension liquid-gas in data set [1] (φ2 = 0) turned out to be 71.8 ± 0.4 mN/m. Still for that read-out and setting: the same measure for `O` [water] + OCCO: 71.8 ± 0.4 mN/m.
